Entries after “also recorded” stand apart in the source; their conditions may differ.
How the values were obtained:
[1] = tested on: rats; assay: Modified Irwin test (FOB, SAC, FU); type: in vivo, rat; details: 0.01-30 mg/kg
Description: In this study the compounds of the present invention were screened for basal behavioural, autonomic, neurological and toxicological side-effects in rats. For this purpose, a functional observational battery (FOB) in form of an Irwin test (Irwin S., Psychopharmacologia, 1968, 13, 222; 1968; Warburton D. M. Psychopharmacology, 2002, 163, 4; Haggerty G. C. et al., J. Amer. Coll. Toxicol., 1991, 10, 677; Mattsson J. L. et al., J. Amer. Coll. Toxicol., 1996, 15, 239, all references are herein incorporated by reference) modified and validated by the Test Facility was used. Each test compound was tested at eight doses (0.01, 0.03, 0.1, 0.3, 1.0, 3.0, 10.0 and 30.0 mg/kg). All compounds were dissolved in DMSO (administration volume 1 ml/kg). Each dose group included three animals. Two vehicle groups (DMSO and Labrasol) served as negative controls.
At the first day of each test week all test compound solutions necessary for the test (1-2 weeks) were prepared by means of one dilution series starting with the highest concentration. All test compounds dissolved in DMSO were administered in a volume of 1 ml/kg. DMSO-containing solutions were stored at −18° C. All solutions were melted for administration at room temperature 16-20 hours before the start of the test.
Study design and time schedule:
4-7 days: Acclimatization and handling of the animals 1 day: Test day with • (a) Four repeated functional observational battery (FOB): 30 min, 60 min, 120 min, 180 min following compound administration • (b) Short animal check (SAC): 300 min following compound administration 1 day: Follow-up observation (FU): • 24 h (1440 min) following compound administration.
In all experimental parts, an experienced ethologist used lists of predefined methods and behavioural parameters in order to rate the behaviour of the animal (see table 7 for functional observational battery (FOB), table 8 for short animal check (SAC) and table 9 for follow-up observation (FU).
A statistical evaluation of the data was performed that enabled an assessment of the compound's effects on each parameter. Dose-response relationships are not necessarily linear. It was not clear a priori whether the response would be dose-dependent or whether low, medium or high dose effects would occur. Therefore, the data were correlated against a set of different numeric models of theoretical dose-response curves. For this kind of evaluation the measurement times were not differentiated. An average value over all measurement times was calculated for each animal. This value was taken as one measurement within the observation vector. The complete set of parameters measured for the animal (each one averaged over time) formed the observation vector. Each dose was then represented by three observation vectors (3 animals per dose). The effects of all doses were compared with vehicle (DMSO) as the observation vectors for the zero dose. A common pool of 24 animals for the zero dose was used for all compounds to be tested. For each test compound the obtained values for each parameter together with values from the pool of vehicle-treated (DMSO) animals were then correlated with theoretical dose-response models (analysis profiles). Since 8 doses were be used, there were 8 models, each assuming that the maximum compound effect occurred at one of these doses. Effects of other doses were assumed to be attenuated with a linearly descending slope of the theoretical curve. Correlation values and statistical significance of regression were then calculated. An error probability of p<0.05 (two-tailed testing) was taken as significance level. Non-significant regressions were neglected. In consequence, each parameter was assessed as not affected or affected by the compound in a dose-response relationship according to type 1 (low dose effect) up to type 8 (high dose effect). Dose response is maximal for the effect with the greatest absolute correlation coefficient. […]

[2] = tested on: Reserpine induced catalepsy; assay: Acute Reserpine induced catalepsy test; type: in vivo, rat; details: for effect on catalepsy time in acute Reserpine induced catalepsy model: i.p. in DMSO, 0.1-10 mg/kg; for maximum catalepsy values after Reserpine treatment / median catalepsy values after Reserpine treatment: vs only Reserpine-treated animals
Method: Animals were administered with Reserpine or CGS-21680 according to methods known to the skilled person in the art. These models and procedures are e.g. described by Ferré S. et al., Neurosci. Let., 1991, 130, 162; Ferré S. et al., Neuroscience, 1992, 51, 501; Kafka S. H. et al., Eur. J. Pharmacol., 1996, 295, 147; Rimondini R. et al., Neuropsychopharmacology, 1997, 17, 82 and are herein incorporated by reference. In the acute CGS-21680 induced catalepsy model (CGS model) the test compounds (TC, compounds according to the present invention) and CGS-21680 (i.p. 2 mg/kg) were administered 60 minutes before the start of the catalepsy bar measurement and behavioural testing described below (see also FIG. 1). In the acute Reserpine induced catalepsy model (RES model Resperine (subcutaneously, 3 mg/kg) was injected 24 h prior to the test compound application. Catalepsy bar measurement took place 60 minutes after test compound application (see FIG. 1). Test compounds were administered i.p. in DMSO in following doses (mg/kg): 0.1, 0.3, 1, 3, 10.
Dimethylsulfoxide (DMSO) was used as vehicle for the test compounds and Reserpine. Reserpine was dissolved in DMSO in a concentration of 3 mg/ml. A 10% (w/v) Cyclodextrin solution was used as vehicle for CGS-21680. CGS 21680 was dissolved in 10% (w/v) Cyclodextrine in a concentration of 2 mg/ml.
Apomorphine was used as a reference compound in the Reserpine induced catalepsy model. Apomorphine injection solution was diluted with purified water to a concentration of 0.3 mg/ml. The solution was administered subcutaneously (s.c.) in a volume of 1 ml/kg (0.3 mg/kg) 20 minutes before the begin of testing after Reserpine pre-treatment (25 hours prior to testing).
The catalepsy bar after Reserpine administration was measured (CAT) as follows: The rat was placed with its forepaws on a log of wood. […] The animal was tested for three trials and the time for each trial was noted. The following parameters were calculated: maximum time to descend (s) and median time to descend (s). […]
All statistical tests were performed two tailed with a value of p<0.05 considered as significant.
To assess the effects of CGS-21680 and Reserpine pre-treatment compared to vehicle treated controls statistical comparisons between the test groups were performed using a U test statistic.
To assess the effects of test compounds on CGS-21680 and Reserpine pre-treated animals correlation analyses including animals from test groups and the respective test compound-treated groups were performed.
Additionally, parametric and non-parametric comparisons for the median catalepsy measure were performed to assess the reliability of the method. In case of parametric testing a GLM analyses was performed including animals from a control group (only vehicle treated animals) and the respective test compound-treated groups with dose as a categorical factor. In case of a significant result, a Dunnett's post hoc test was performed between the according test compound groups and a control group as reference group. In case of non-parametric testing a Kruskal-Wallis H-test was performed including animals from a control group and the respective test compound groups. In case of a significant result single U-test comparisons were performed between a control group and the groups treated with different doses of the test compound.

Row | SMILES | activity in the Irwin Test (hyperlocomotion) [1] | effect on catalepsy time in acute Reserpine induced catalepsy model [2] | maximum catalepsy values after Reserpine treatment [2] | median catalepsy values after Reserpine treatment [2]
1 | C#CCn1c(=O)c2c(nc(C#Cc3ccc(OC)c(OC)c3)n2C)n(CCCO)c1=O [test compound 2, 3-(3-hydroxypropyl)-8-(3,4-dimethoxyphenylethynyl)-7-methyl-1-prop-2-ynyl-3,7-dihydropurine-2,6-dione] | potent hyperlocomotion | reduced catalepsy time; also recorded: significant reduction of catalepsy time | significantly decreased | significantly decreased
2 | C#CCn1c(=O)c2c(nc(C#Cc3ccc(OC)c(OC)c3)n2C)n(CC)c1=O [test compound 1, 3-ethyl-8-(3,4-dimethoxyphenylethynyl)-7-methyl-1-prop-2-ynyl-3,7-dihydropurine-2,6-dione] | potent hyperlocomotion | significantly reduced catalepsy time; also recorded: significant reduction of catalepsy time | only weakly reduced | significantly reduced
